Measured values reported in US20210221791A1, “COMPOUNDS” (UNIVERSITETET I OSLO, priority 2016, published 2021).
Like-named read-outs stand apart in the source and are kept apart here.

Legend:
[1] = zinc-binding ability; known/prior art value; cited from earlier work
K. pneumoniae K66-45 = type: cell-based; conditions: inhibitor 25 mg/L
Method: After plating and grown overnight at 37° C., only single colonies, ignoring any touching the edges of the plate, were counted.
10^9 CFU K66-45 (Mueller-Hinton broth, no selection) was plated and grown overnight, 37° C. Only single colonies, ignoring any touching the edges of the plate, were counted.

[2] = tested on: resistant gram-negative MBL-based bacteria; test: MICx: lowest adjuvant concentration giving carbapenem MIC ≤2 mg/L; type: cell-based; conditions: for adjuvant effect at an inhibitor concentration of 25 mg/L: meropenem, K34-7 and K66-45
VIM-2 = VIM-2 (Escherichia coli, UniProt Q5U7L7); type: biochemical; conditions: purified VIM-2, PD-10 column; EDTA at 100 μM
Method: The eluent used was Chelex-treated HEPES 50 mM buffer, pH 7.5. […] In all experiments, 16 aliquots of 250 μL were taken from the PD-10 column runsout and enzyme activity was analysed. Enzyme activity was measured by adding Nitrocefin as a reporter substrate (final concentration of 50 μM).
To investigate if more extreme time-dependent and concentration-dependent conditions could restore enzyme activity, aliquots having final concentrations of 30 nM column-treated enzyme and 1000 μM Zn^2+ on ice and at room temperature over prolonged time.

[3] = tested on: P. aeruginosa K34-7 (VIM-2); test: Microbroth dilution MIC of carbapenem with/without inhibitor; type: cell-based
Method: (§1) • Plate bacterial strain(s) on appropriate media: • Gram-negative bacteria with ESBLs or carbapenemases: green agar plates with 100 mg/L ampicillin • Gram-negative bacteria without β-lactamases: green agar plates • Gram-positive bacteria (Staphylococci and Enterococci): blood agar plates • Incubate o.n. at 37° C.
(§2) (Should be used within 15 min of preparation). • Dilute the 0.5 McFarland suspension 1:100 into MH broth. […] Plate 10 μl of the dilution on MH agar plates (×2). Incubate o.n. at 37° C., count the colonies and calculate the final CFU/ml inoculum in the plate by multiplying the average number of colonies with 10000 and divide by 2. The final inoculum should be between 3-7×10^5 CFU/ml. • Add 50 μl of the prepared bacterial suspension to each well in the microtiter plate except negative growth control.
(§3) • Calculate the desired concentration-range and volume of the compounds/antibiotics in the assay. […] Dilute the stock solution in MH broth. Make subsequent 2-fold dilutions in MH broth of the desired concentrations if a concentration range is to be tested (remember the extra dilution factor in the assay plate). Always include extra volume for pipetting. Take into consideration stock solutions that are made in buffers that have an effect on bacterial growth (e.g. DMSO).

[4] = tested on: Klebsiella pneumoniae strain 50752501 harbouring NDM-1; test: In vivo infection study in neutropenic mice; parameters: species or system Klebsiella pneumoniae; host NMRI mice; conditions: meropenem alone 33 mg/kg
Method: The purpose of this study was to investigate the synergy between a typical example of the present invention and a state of art carbapenem in a clinically relevant multiresistant Gram-negative bacterial strain harboring a metallo-β-lactamase in the treatment of live mice infected with the bacterial strain.
The mice were rendered neutropenic by injecting 0.5 ml cyclophosphamide solution intraperitoneally 4 days (approximately 200 mg/kg) and 1 day (approximately 100 mg/kg) prior to inoculation.
Fresh overnight colonies from a 5% Horse Blood Agar plate were suspended and diluted in sterile saline to approximately and 10^7 CFU/ml. Mice were inoculated intraperitoneally with 0.5 ml of the suspension. Approximately ½ hr prior to inoculation, mice were treated orally with 45 μl neurophen (20 mg ibuprofen/ml corresponding to approximately 30 mg/kg) as a pain relief.
Mice were treated subcutaneously in the neck region with.
Colony counts were determined from blood and peritoneal fluid at 1 and 5 hrs post inoculation. […] The mice were sacrificed immediately after blood sampling and a total of 2 ml sterile saline was injected i.p. and the abdomen gently massaged before it was opened and fluid sampled with a pipette. Each sample was then 10 fold serial diluted in saline and 20-μl spots, ranging from undiluted to a 10^6 dilution, were applied on agar plates in duplicates. […] All agar plates were incubated 18-22 hrs at 35° C. in ambient air.

[5] = tested on: K. pneumoniae K66-45 (NDM-1); test: Microbroth dilution MIC of carbapenem with/without inhibitor; type: cell-based
Method: as §1, §2, §3

[6] = tested on: resistant clinical isolate of Klebsiella pneumoniae harboring NDM-1; test: Time-kill study with meropenem; type: cell-based; conditions: 4 mg/L meropenem alone; grows beyond starting CFU count
Method: Mueller-Hinton broth (MHB) was warmed from fridge temperature cold. […] A sample of Example 26 was dissolved in DMSO.
The 96-well plates were prepared using a multi-channel pipette, adding […] PBS to columns 2-9, or the required number of dilutions needed in the experiment. Each Inoculum was prepared by picking a single colony from the fresh plate that was disperged into 1 mL MHB, the loop was agitated to ensure all the colony comes off the loop. The tube was Vortex mixed, and a 100 μL aliquot was taken from the tube into 9.9 mL of MHB into the media bottle. […] The procedure was repeated for as many samples needed in the study. Aliquots of 5 mL inoculum were transferred to as many media bottles as needed, e.g. 4 mg/L MEM, 4 mg/L MEM+50 μM test substance, 4 mg/L MEM+100 μM test substance. Then […] aliquots were taken from each culture and added to Column 1 on the 96 well plate, e.g. culture 1: 50 μl into A1, […] into B1 etc. for time point 0 h. Then […] MEM was added into each bottle, followed by the required amount of test substance. The bottles were mixed gently to avoid formation of bubbles, and incubated in a secondary container at 37° C. at 180 rpm. Finally, serial dilutions were performed using multi-channel pipette taking 30 μL for column 1, adding to column 2, mixing well, repeating from column 2 to 3 with clean pipette tips.

c1ccc(CNCc2ccccn2)nc1 [DPA, dipicoylamine]
pKd [1]: < 8

CN(C[C@H](O)[C@@H](O)[C@H](O)[C@H](O)CO)C(=O)Cc1ccc(NC(=O)CN(CCN(Cc2ccccn2)Cc2ccccn2)Cc2ccccn2)cc1 [Example 25, 2-(4-(2-((2-(bis(pyridin-2-ylmethyl)amino)ethyl)(pyridin-2-ylmethyl)amino)acetamido)phenyl)-N-methyl-N-(2,3,4,5,6-pentahydroxyhexyl)acetamide]
RF - no of colonies (K. pneumoniae K66-45; MEM 2 mg/L): nc (n.c. = no colonies) | RF - no of colonies (K. pneumoniae K66-45; MEM 4 mg/L): nc (n.c. = no colonies) | RF - no of colonies (K. pneumoniae K66-45; MEM 8 mg/L): nc (n.c. = no colonies)

CN(C[C@H](O)[C@@H](O)[C@H](O)[C@H](O)CO)C(=O)c1ccc(CN(Cc2ccccn2)Cc2ccccn2)s1 [Example 182, 5-((bis(pyridin-2-ylmethyl)amino)methyl)-N-methyl-N-((2S,3R,4R,5R)-2,3,4,5,6-pentahydroxyhexyl)thiophene-2-carboxamide]
adjuvant effect at an inhibitor concentration of 25 mg/L [2]: completely abolishes the adjuvant effect

O=C(O)CN(CCN(CC(=O)O)CC(=O)O)CC(=O)O [EDTA, ethylenediaminetetra-acetic acid, reference compound]
irreversibility of VIM-2 inhibition (VIM-2): did not inhibit VIM-2 irreversibly

c1ccc(CN(Cc2ccccn2)Cc2ccccn2)nc1 [TPA, N,N,N-tris(2-pyridylmethyl) amine]
pKd [1]: about 12

c1ccc(CN(CCN(Cc2ccccn2)Cc2ccccn2)Cc2ccccn2)nc1 [TPEN, N,N,N′,N′-tetrakis(2-pyridylmethyl) ethylenediamine, reference compound]
irreversibility of VIM-2 inhibition (VIM-2): irreversibly inhibited

OC1O[C@H](Cn2cc(CN(CCN(Cc3ccccn3)Cc3ccccn3)Cc3ccccn3)nn2)[C@H](O)[C@H](O)[C@H]1O (stereo partly shown) [Example 91]
MIC of meropenem ([3]; P. aeruginosa K34-7 (VIM-2), inhibitor 50 μM): 1

O=C(Cc1ccc(-n2cc(CN(Cc3ccccn3)Cc3ccccn3)nn2)cc1)N[C@@H](Cc1cccc(C(=O)O)c1)B(O)O [Example 157, (R)-3-(2-(2-(4-(4-((bis(pyridin-2-ylmethyl)amino)methyl)-1H-1,2,3-triazol-1-yl)phenyl)acetamido)-2-boronoethyl)benzoic acid]
adjuvant effect at an inhibitor concentration of 25 mg/L [2]: less activity as an adjuvant

CN(C[C@H](O)[C@@H](O)[C@H](O)[C@H](O)CO)C(=O)c1ccc(CN(Cc2ccccc2)Cc2ccccn2)nc1 [Example 187, 6-((benzyl(pyridin-2-ylmethyl)amino)methyl)-N-methyl-N-((2S,3R,4R,5R)-2,3,4,5,6-pentahydroxyhexyl)nicotinamide]
adjuvant effect at an inhibitor concentration of 25 mg/L [2]: completely abolishes the adjuvant effect

C[C@@H](O)[C@H]1C(=O)N2C(C(=O)O)=C(S[C@@H]3CN[C@H](C(=O)N(C)C)C3)[C@H](C)[C@H]12 [meropenem, reference compound]
lower CFU levels compared to vehicle treatment ([4]; blood): 2.5 log10 | lower CFU levels compared to vehicle treatment ([4]; peritoneal fluid): 2.2 log10 | MIC ([5]; Klebsiella pneumoniae, read-out: MIC of MEM in the absence of Example 26, K. pneumoniae K66-45): > 32 µg/mL | MIC Value in K66-45 (MIC of carbapenem) ([5]; carbapenem alone, K. pneumoniae NDM-1): 32 to 64 mg/L | MIC value in K34-7 (MIC of carbapenem) ([3]; carbapenem alone, P. aeruginosa VIM-2): 32 to 64 mg/L | time after which CFU starts to increase [6]: about 5 hours

COC(=O)[C@@H](C)NC(=O)[C@@H](C)NC(=O)Cn1cc(CN(Cc2ccccn2)Cc2ccccn2)nn1 [Example 194, Methyl (2-(4-((bis(pyridin-2-ylmethyl)amino)methyl)1H-1,2,3-triazol-1-yl)acetyl)-D-alanyl-D-alaninate, reference compound]
adjuvant concentration range at which efficient [2]: 100 to 150 µM

O=C(NCCc1ccc(-n2cc(CN(Cc3ccccn3)Cc3ccccn3)nn2)cc1)[C@H]1O[C@H](O)[C@H](O)[C@@H](O)[C@H]1O [Example 101, (2S,3R,4S,5R,6S)—N-(4-(4-((Bis(pyridin-2-ylmethyl)amino)methyl)-1H-1,2,3-triazol-1-yl)phenethyl)-3,4,5,6-tetrahydroxytetrahydro-2H-pyran-2-carboxamide]
adjuvant concentration range at which efficient [2]: 100 to 150 µM | adjuvant effect at an inhibitor concentration of 25 mg/L [2]: less activity as an adjuvant

COC(=O)c1ccc(CN(Cc2ccccn2)Cc2ccccn2)s1 [Example 180, Methyl 5-((bis(pyridin-2-ylmethyl)amino)methyl)thiophene-2-carboxylate]
adjuvant effect at an inhibitor concentration of 25 mg/L [2]: completely abolishes the adjuvant effect

CN(C[C@H](O)[C@@H](O)[C@H](O)[C@H](O)CO)C(=O)c1ccc(CN(Cc2ccccc2)Cc2ccccc2)nc1 [Example 185, 6-((dibenzylamino)methyl)-N-methyl-N-((2S,3R,4R,5R)-2,3,4,5,6-pentahydroxyhexyl)nicotinamide]
adjuvant effect at an inhibitor concentration of 25 mg/L [2]: completely abolishes the adjuvant effect
